These results are taken from patent US11492405B2, “Reducing systemic regulatory t cell levels or activity for treatment of disease and injury of the CNS” (Yeda Research and Development Co. Ltd, priority 2014, dated 2022).

The test system of experiment [1] is 5XFAD AD-Tg mice. As to the kind of experiment: RT-qPCR of choroid plexus (CP) in 5XFAD AD-Tg mice. The experiment is classed as in vivo, mouse. The protocol:
Total RNA of the hippocampal dentate gyrus (DG) was extracted with TRI Reagent (Molecular Research Center) and purified from the lysates using an RNeasy Kit (Qiagen). Total RNA of the choroid plexus was extracted using an RNA MicroPrep Kit (Zymo Research). mRNA (1 μg) was converted into cDNA using a High Capacity cDNA Reverse Transcription Kit (Applied Biosystems). The expression of specific mRNAs was assayed using fluorescence-based quantitative real-time PCR (RT-qPCR). RT-qPCR reactions were performed using Fast-SYBR PCR Master Mix (Applied Biosystems). Quantification reactions were performed in triplicate for each sample using the standard curve method. Peptidylprolyl isomerase A (ppia) was chosen as a reference (housekeeping) gene. The amplification cycles were 95° C. for 5 s, 60° C. for 20 s, and 72° C. for 15 s. […] For ifn-γ and ppia gene analysis, the cDNA was pre-amplified in 14 PCR cycles with non-random PCR primers, thereby increasing the sensitivity of the subsequent real-time PCR analysis, according to the manufacturer's protocol (PreAmp Master Mix Kit; Applied Biosystems). mRNA expression was determined using TaqMan RT-qPCR, according to the manufacturer's instructions (Applied Biosystems). All RT-qPCR reactions were performed and analyzed using StepOne software V2.2.2 (Applied Biosystems). […]
A general note: Quantitative PCR measures a nucleic acid by following its amplification.

Experiment [2] deals with 5XFAD AD-Tg mice. As to the kind of experiment: RT-qPCR of hippocampus / brain parenchyma in 5XFAD AD-Tg mice. In kind it is in vivo, mouse. The protocol: Total RNA of the hippocampal dentate gyrus (DG) was extracted with TRI Reagent (Molecular Research Center) and purified from the lysates using an RNeasy Kit (Qiagen). Total RNA of the choroid plexus was extracted using an RNA MicroPrep Kit (Zymo Research). mRNA (1 μg) was converted into cDNA using a High Capacity cDNA Reverse Transcription Kit (Applied Biosystems). The expression of specific mRNAs was assayed using fluorescence-based quantitative real-time PCR (RT-qPCR). RT-qPCR reactions were performed using Fast-SYBR PCR Master Mix (Applied Biosystems). Quantification reactions were performed in triplicate for each sample using the standard curve method. Peptidylprolyl isomerase A (ppia) was chosen as a reference (housekeeping) gene. The amplification cycles were 95° C. for 5 s, 60° C. for 20 s, and 72° C. for 15 s. At the end of the assay, a melting curve was constructed to evaluate the specificity of the reaction. For ifn-γ and ppia gene analysis, the cDNA was pre-amplified in 14 PCR cycles with non-random PCR primers, thereby increasing the sensitivity of the subsequent real-time PCR analysis, according to the manufacturer's protocol (PreAmp Master Mix Kit; Applied Biosystems). mRNA expression was determined using TaqMan RT-qPCR, according to the manufacturer's instructions (Applied Biosystems). All RT-qPCR reactions were performed and analyzed using StepOne software V2.2.2 (Applied Biosystems). The following TaqMan Assays-on-Demand™ probes were used: Mm02342430_g1 (ppia) and Mm01168134_m1 (ifn-γ).
For all other genes examined, the following primers were used: […]

Experiment [3] concerns APP/PS1 mouse model of AD. The following applies: weekly administration regimen; cited from earlier work.
Experiment [4] relates to 5XFAD AD-Tg mice. The experiment can be described thus: Immune cell / mo-Mϕ infiltration of brain in 5XFAD AD-Tg mice (flow cytometry, BM chimeras). In kind it is in vivo, mouse. As for the experimental part: Tissue processing and immunohistochemistry were performed on paraffin embedded sectioned mouse (6 μm thick) and human (10 μm thick) brains. For human ICAM-1 staining, primary mouse anti-ICAM (1:20 Abcam; ab2213) antibody was used. Slides were incubated for 10 min with 3% H2O2, and a secondary biotin-conjugated anti-mouse antibody was used, followed by biotin/avidin amplification with Vectastain ABC kit (Vector Laboratories). Subsequently, 3,3′-diaminobenzidine (DAB substrate) (Zytomed kit) was applied; slides were dehydrated and mounted with xylene-based mounting solution. For tissue stainings, mice were transcardially perfused with PBS prior to tissue excision and fixation. CP tissues were isolated under a dissecting microscope (Stemi DV4; Zeiss) from the lateral, third, and fourth ventricles of the brain. For whole mount CP staining, tissues were fixated with 2.5% paraformaldehyde (PFA) for 1 hour at 4° C., and subsequently transferred to PBS containing 0.05% sodium azide. Prior to staining, the dissected tissues were washed with PBS and blocked (20% horse serum, 0.3% Triton X-100, and PBS) for 1 h at room temperature. Whole mount staining with primary antibodies (in PBS containing 2% horse serum and 0.3% Triton X-100), or secondary antibodies, was performed for 1 h at room temperature. Each step was followed by three washes in PBS. The tissues were applied to slides, mounted with Immu-mount (9990402, from Thermo Scientific), and sealed with cover-slips. For staining of sectioned brains, two different tissue preparation protocols (paraffin embedded or microtomed free-floating sections) were applied, as previously described (Baruch et al, 2013; Kunis et al, 2013). The following primary antibodies were used: mouse anti-Aβ (1:300, Covance, #SIG-39320); rabbit anti-GFP (1:100, MBL, #598); rat anti-CD68 (1:300, eBioscience, #14-0681); rat anti-ICAM-1 (1:200, Abcam, #AB2213); goat anti-GFP (1:100, Abcam, #ab6658); rabbit anti-IBA-1 (1:300, Wako, #019-19741); goat anti-IL-10 (1:20, R&D systems, #AF519); rat anti-Foxp3 (1:20, eBioscience, #13-5773-80); rabbit anti-CD3 (1:500, Dako, #IS503); mouse anti-ZO-1, mouse anti-E-Cahedrin, and rabbit anti-Claudin-1 (all 1:100, Invitrogen, #33-9100, #33-4000, #51-9000); rabbit anti-GFAP (1:200, Dako, #Z0334). […] Microscopic analysis, was performed using a fluorescence microscope (E800; Nikon) or laser-scanning confocal microscope (Carl Zeiss, Inc.). The fluorescence microscope was equipped with a digital camera (DXM 1200F; Nikon), and with either a 20×NA 0.50 or 40×NA 0.75 objective lens (Plan Fluor; Nikon). […] For quantification of staining intensity, total cell and background staining was measured using ImageJ software (NIH), and intensity of specific staining was calculated, as previously described (Burgess et al, 2010). […]
(In general: A flow cytometer gives signals particle by particle.)

The mark [5] stands for this setting: weekly-GA vs untreated AD-Tg mice, age 6 m.
[6] abbreviates: AD-Tg/Foxp3-DTR+ mice, 3 weeks after last DTx injection.

Entries after “also recorded” stand apart in the source; their conditions may differ.

On to Glatiramer acetate [GA], for which the “CP epithelial expression of leukocyte trafficking molecules (icam1, cxcl10, ccl2)” value in experiment [1] (weekly-GA, end of 1st or 4th week) is “upregulated”. The “neuroinflammation (hippocampal mRNA)” value in experiment [2] (weekly-GA 100 μg s.c. over 4 weeks, 5XFAD AD-Tg mice) is “reduced neuroinflammation”. Also, in experiment [2] (setting [5]), the “hippocampal mRNA expression of anti-inflammatory cytokines IL-10 and TGF-β” value is listed as “elevation”; the “hippocampal mRNA expression of neurotropic factors IGF-1 and BDNF” value is “elevation”; the “hippocampal mRNA expression of pro-inflammatory cytokines TNF-α, IL-1β and IL-12p40” value was “reduced expression”. In experiment [3], the “effect in the APP/PS1 mouse model of AD” value is recorded as “therapeutic effect”. For the same substance, the “numbers of CD11bhighCD45high-expressing cells in hippocampus” value in experiment [4] (2nd week of weekly-GA regimen, non-chimeric AD-Tg mice) is reported as “increased numbers”. Moreover, the “homing of GFP+ mo-Mϕ to the CP and adjacent ventricular spaces” value in experiment [4] (weekly-GA vs vehicle, AD-Tg/CX3CR1GFP/+ BM chimeras) is “increased homing”.

In the case of Diphtheria toxin [DTx], in experiment [1] (AD-Tg/DTR+ vs DTx-treated AD-Tg/DTR− littermates, 1 day after last DTx injection), the “CP mRNA expression of leukocyte trafficking molecules (icam1, cxcl10, ccl2)” value is “elevated mRNA expression”. For the same substance, in experiment [2] (setting [6]), the “foxp3 and il10 mRNA expression in hippocampus” value is recorded as “increased expression”; the “mRNA expression of pro-inflammatory cytokines il-12p40 and tnf-α in brain parenchyma” value was “reduced mRNA expression levels”. In experiment [4] (setting [6]), the “Foxp3+ Tregs among CD4+ T cells accumulated within the brain” value was “marked enrichment”; the “numbers of CD45high/CD11bhigh mo-Mϕ and CD4+ T cells in brain parenchyma” value is “increased numbers; also recorded: elevated numbers”.
